Experimental data taken from PubChem BioAssay AID256 (DTP/NCI, 2004).
“And” between values parts separate entries of the source, which are not always exact repeats. Equal values may be shown once. Inconclusive results and toxic doses are left out. The calls were made as follows: active = survival T/C of 150% or more; inactive = T/C below 125% in these data.

System: CD2F1 mice, L1210 leukemia ip, survival T/C
Assay: NCI In Vivo Anticancer Drug Screen. Data for tumor model L1210 Leukemia (intraperitoneal) in CD2F1 (CDF1) mice
Details: higher = longer survival
Procedure, shortened: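 In this screen, transplantable tumors were grown in mice given either the compound or its vehicle. Results were expressed as the treated measurement relative to the control measurement.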

[1] = endpoint: mean survival time, dose: 50.0 mg/kg/injection, schedule: Q01DX009 (ip), vehicle: saline with Tween-80
[2] = endpoint: mean survival time, dose: 100.0 mg/kg/injection, schedule: Q01DX009 (ip), vehicle: saline with Tween-80
[3] = endpoint: mean survival time, dose: 200.0 mg/kg/injection, schedule: Q01DX009 (ip), vehicle: saline with Tween-80
[4] = endpoint: mean survival time, dose: 6.25 mg/kg/injection, schedule: Q04DX003 (ip), vehicle: saline
[5] = endpoint: mean survival time, dose: 100.0 mg/kg/injection, schedule: Q04DX003 (ip), vehicle: saline with Tween-80
[6] = endpoint: mean survival time, dose: 200.0 mg/kg/injection, schedule: Q04DX003 (ip), vehicle: saline with Tween-80
[7] = endpoint: mean survival time, dose: 400.0 mg/kg/injection, schedule: Q04DX003 (ip), vehicle: saline with Tween-80
[8] = endpoint: mean survival time, dose: 100.0 mg/kg/injection, schedule: Q01DX001 (ip), vehicle: saline with Tween-80
[9] = endpoint: mean survival time, dose: 200.0 mg/kg/injection, schedule: Q01DX001 (ip), vehicle: saline with Tween-80
[10] = endpoint: mean survival time, dose: 400.0 mg/kg/injection, schedule: Q01DX001 (ip), vehicle: saline with Tween-80
[11] = endpoint: mean survival time, dose: 400.0 mg/kg/injection, schedule: Q01DX009 (ip), vehicle: saline with Tween-80
[12] = endpoint: mean survival time, dose: 25.0 mg/kg/injection, schedule: Q04DX002 (ip), vehicle: saline with Tween-80
[13] = endpoint: mean survival time, dose: 50.0 mg/kg/injection, schedule: Q04DX002 (ip), vehicle: saline with Tween-80
[14] = endpoint: mean survival time, dose: 100.0 mg/kg/injection, schedule: Q04DX002 (ip), vehicle: saline with Tween-80
[15] = endpoint: mean survival time, dose: 200.0 mg/kg/injection, schedule: Q04DX002 (ip), vehicle: saline with Tween-80
[16] = endpoint: mean survival time, dose: 400.0 mg/kg/injection, schedule: Q04DX002 (ip), vehicle: saline with Tween-80
[17] = endpoint: mean survival time, dose: 200.0 mg/kg/injection, schedule: Q01DX001 (ip), vehicle: saline
[18] = endpoint: mean survival time, dose: 400.0 mg/kg/injection, schedule: Q01DX001 (ip), vehicle: saline

Measured: T/C

OC1(c2ccccc2)c2ccccc2C(O)(c2ccccc2)c2c1ccc1ccccc21 (stereo not given)
inactive: [1] 91 % of control | [2] 94 % of control | [3] 91 % of control

CC([NH-])CC(C)[NH-].O=[N+]([O-])O.O=[N+]([O-])O.[Pt+2] (stereo not given)
active: [4] 154 % of control | endpoint: mean survival time, dose: 12.5 mg/kg/injection, schedule: Q04DX003 (ip), vehicle: saline 247 % of control | endpoint: mean survival time, dose: 25.0 mg/kg/injection, schedule: Q04DX003 (ip), vehicle: saline 207 % of control

COc1ccc(/C=C2/SC(=S)NC2=O)c(OC)c1OC
inactive: endpoint: mean survival time, dose: 75.0 mg/kg/injection, schedule: Q01DX001 (ip), vehicle: other 103 % of control | endpoint: mean survival time, dose: 150.0 mg/kg/injection, schedule: Q01DX001 (ip), vehicle: other 92 % of control | endpoint: mean survival time, dose: 300.0 mg/kg/injection, schedule: Q01DX001 (ip), vehicle: other 103 % of control

NNC(=O)c1ncn(C2OC(CO)C(O)C2O)c1C(=O)NN (stereo not given)
inactive: endpoint: mean survival time, dose: 12.5 mg/kg/injection, schedule: Q01DX005 (ip), vehicle: water 103 % of control | endpoint: mean survival time, dose: 25.0 mg/kg/injection, schedule: Q01DX005 (ip), vehicle: water 101 % of control | endpoint: mean survival time, dose: 50.0 mg/kg/injection, schedule: Q01DX005 (ip), vehicle: water 95 % of control | endpoint: mean survival time, dose: 100.0 mg/kg/injection, schedule: Q01DX005 (ip), vehicle: water 103 % of control | endpoint: mean survival time, dose: 200.0 mg/kg/injection, schedule: Q01DX005 (ip), vehicle: water 97 % of control

CN(CCN1CCCC1)C(=O)C(O)(c1ccccc1)c1ccccc1
inactive: endpoint: mean survival time, dose: 100.0 mg/kg/injection, schedule: Q04DX003 (ip), vehicle: saline 96 % of control | endpoint: mean survival time, dose: 200.0 mg/kg/injection, schedule: Q04DX003 (ip), vehicle: saline 93 % of control

O=C(Nc1ccccc1C(F)(F)F)Nc1cccc2ccccc12
inactive: [5] 95 % of control | [6] 104 % of control | [7] 95 % of control

CN(C)c1ccc(/C=C/c2nc3ccccc3o2)cc1
inactive: endpoint: mean survival time, dose: 100.0 mg/kg/injection, schedule: Q04DX003 (ip), vehicle: Klucel (hydroxypropylcellulose) (HPC) 96 % of control | endpoint: mean survival time, dose: 200.0 mg/kg/injection, schedule: Q04DX003 (ip), vehicle: Klucel (hydroxypropylcellulose) (HPC) 100 % of control | endpoint: mean survival time, dose: 400.0 mg/kg/injection, schedule: Q04DX003 (ip), vehicle: Klucel (hydroxypropylcellulose) (HPC) 102 % of control

O=[N+]([O-])c1cccc(-c2nn[nH]n2)c1
inactive: [8] 93 % of control | [2] 98 % of control | [5] 97 % of control | [9] 104 % of control | [3] 117 % of control | [6] 97 % of control | [10] 88 % of control | [11] 101 % of control | [7] 103 % of control

CCc1cccc(CC)c1NC(=S)NN
inactive: [12] 104 % of control | [13] 96 % of control | [14] 96 % of control

COCCNc1ccc([N+](=O)[O-])cc1[N+](=O)[O-]
inactive: [8] 92 % of control | [2] 95 % of control | [9] 92 % of control | [3] 93 % of control | [10] 96 % of control | [11] 91 % of control

COc1ccc(/C=N\NC(=O)CCCCCCCCC(=O)N/N=C\c2ccc(OC)c(O)c2)cc1O
inactive: [1] 97 % of control | [2] 97 % of control | [3] 105 % of control

Cc1cc(C)nc(C)c1.[Cl-].[Cl-].[Cl-].[Cl-].[Pt+2]
inactive: endpoint: mean survival time, dose: 25.0 mg/kg/injection, schedule: Q04DX003 (ip), vehicle: saline with Tween-80 98 % of control | endpoint: mean survival time, dose: 50.0 mg/kg/injection, schedule: Q04DX003 (ip), vehicle: saline with Tween-80 101 % of control | [5] 103 % of control

O=C(N/N=C/Cc1ccccc1)c1cc2ccccc2cc1O
inactive: [2] 101 % of control | [3] 95 % of control | [11] 108 % of control

C1CC[N-]CC1.CC(=N\O)/C(C)=N/O.CC(=N\O)/C(C)=N/O.C[CH-]C(C)O.[Co+2]
inactive: [4] 97 % of control

[Cl][Pt+2][Cl].[NH-]C1CCCCC1[NH-] (stereo not given)
inactive: endpoint: mean survival time, dose: 0.39 mg/kg/injection, schedule: Q04DX003 (ip), vehicle: saline with Tween-80 124 % of control | endpoint: mean survival time, dose: 1.56 mg/kg/injection, schedule: Q04DX002 (ip), vehicle: saline 119 % of control and 124 % of control | endpoint: median survival time, dose: 20.0 mg/kg/injection, schedule: Q04DX003 (ip), vehicle: saline 100 % of control

O=C(Nc1ccccc1Cl)Nc1ccccc1Cl
inactive: [14] 90 % of control | [15] 94 % of control | [16] 94 % of control

CCOC(=O)Nc1cc2c(c(N)n1)N=C(c1ccc3ccccc3c1)CN2
inactive: endpoint: median survival time, dose: 0.93 mg/kg/injection, schedule: Q01DX009 (ip), vehicle: saline with Tween-80 122 % of control | endpoint: median survival time, dose: 1.0 mg/kg/injection, schedule: Q01DX009 (ip), vehicle: saline with Tween-80 112 % of control | endpoint: median survival time, dose: 1.87 mg/kg/injection, schedule: Q01DX009 (ip), vehicle: saline with Tween-80 113 % of control | endpoint: median survival time, dose: 3.75 mg/kg/injection, schedule: Q01DX009 (ip), vehicle: saline with Tween-80 121 % of control | endpoint: median survival time, dose: 15.0 mg/kg/injection, schedule: Q01DX009 (ip), vehicle: saline with Tween-80 113 % of control | endpoint: median survival time, dose: 16.0 mg/kg/injection, schedule: Q01DX009 (ip), vehicle: saline with Tween-80 114 % of control

CCCCCCCCCCCCCCCCCCCCCC(=O)Nc1ccn(C2OC(CO)C(O)C2O)c(=O)n1 (stereo not given)
active: [14] 212 % of control | [15] 253 % of control | [16] 325 % of control

O=C1CSC2(CCN(Cc3ccccc3)CC2)O1
inactive: endpoint: mean survival time, dose: 100.0 mg/kg/injection, schedule: Q01DX001 (ip), vehicle: saline 98 % of control | [17] 102 % of control | [18] 95 % of control

Nc1ccc(-c2ccc(N)c(Cl)c2)cc1Cl
inactive: endpoint: mean survival time, dose: 100.0 mg/kg/injection, schedule: Q01DX009 (ip), vehicle: Klucel (hydroxypropylcellulose) (HPC) 105 % of control | endpoint: mean survival time, dose: 200.0 mg/kg/injection, schedule: Q01DX009 (ip), vehicle: Klucel (hydroxypropylcellulose) (HPC) 103 % of control | endpoint: mean survival time, dose: 400.0 mg/kg/injection, schedule: Q01DX009 (ip), vehicle: Klucel (hydroxypropylcellulose) (HPC) 100 % of control

Oc1ccc(CCl)cc1O
inactive: endpoint: mean survival time, dose: 25.0 mg/kg/injection, schedule: Q01DX001 (ip), vehicle: saline with Tween-80 107 % of control | endpoint: mean survival time, dose: 50.0 mg/kg/injection, schedule: Q01DX001 (ip), vehicle: saline with Tween-80 100 % of control | [8] 89 % of control and 103 % of control

Cc1c2c[n+](CCCCCCCC[n+]3ccc4c(C)c5c(c(C)c4c3)c3ccccc3n5CCO)ccc2c(C)c2c1c1ccccc1n2CCO
inactive: endpoint: mean survival time, dose: 1.56 mg/kg/injection, schedule: Q04DX003 (ip), vehicle: distilled water + Tween-80 119 % of control | endpoint: mean survival time, dose: 12.5 mg/kg/injection, schedule: Q04DX003 (ip), vehicle: distilled water + Tween-80 114 % of control
active: endpoint: mean survival time, dose: 6.25 mg/kg/injection, schedule: Q04DX003 (ip), vehicle: distilled water + Tween-80 150 % of control and 159 % of control

CC/C=N/NC(=O)c1ccc[n+](C)c1
inactive: [14] 100 % of control | [15] 92 % of control | [16] 96 % of control

CC1=C(/C=C/C(C)(O)CC2=NC(C)(C)CO2)C(C)(C)CCC1 (stereo not given)
inactive: [12] 101 % of control | [13] 93 % of control | [14] 93 % of control | [5] 91 % of control | [7] 86 % of control

CCCCCCCCCCCCCCCC(=O)O[C@@]12C[C@@H](C)[C@@]3(O)[C@@H](C=C(CO)C[C@]4(O)C(=O)C(C)=C[C@@H]34)[C@@H]1C2(C)C
inactive: endpoint: mean survival time, dose: 0.06 mg/kg/injection, schedule: Q01DX009 (ip), vehicle: other 98 % of control | endpoint: mean survival time, dose: 0.12 mg/kg/injection, schedule: Q01DX009 (ip), vehicle: saline 103 % of control | endpoint: mean survival time, dose: 0.13 mg/kg/injection, schedule: Q01DX009 (ip), vehicle: other 88 % of control | endpoint: mean survival time, dose: 0.25 mg/kg/injection, schedule: Q01DX009 (ip), vehicle: other 94 % of control | endpoint: mean survival time, dose: 0.25 mg/kg/injection, schedule: Q01DX009 (ip), vehicle: saline 102 % of control | endpoint: mean survival time, dose: 0.5 mg/kg/injection, schedule: Q01DX009 (ip), vehicle: other 102 % of control | endpoint: mean survival time, dose: 0.5 mg/kg/injection, schedule: Q01DX009 (ip), vehicle: saline 103 % of control | endpoint: mean survival time, dose: 1.0 mg/kg/injection, schedule: Q01DX009 (ip), vehicle: saline 102 % of control

O=C(O)C(=O)O
inactive: [17] 92 % of control | [18] 97 % of control
